Measured values published in patent publication US8445677B2, “Substituted pyrimidyl guanidine derivatives having anticancer activity” (University of Southern California, priority 2008, dated 2013).
Values joined by “and” are separate entries in the source; they are usually repeats but may differ in a detail not shown here. Equal values may be shown once.

Columns and labels:
Experiment in all cases: MTT cytotoxicity assay (Example 1)
[1] = tested on: MDA-MB-435; assay type: cell-based, human
Text: (§1) Human breast cancer cells MDA-MB-435 were purchased from the American Type Culture Collection (Manassas, Va.). The HCT116 p53+/+ and HCT116 p53−/− cells were kindly provided by Dr. Bert Vogelstein (Johns Hopkins Medical Institutions, Baltimore, Md.). The human ovarian carcinoma cell line (HEY) which is naturally resistant to cisplatin, was kindly provided by Dr. Louis Dubeau, University of Southern California (USC) Norris Cancer Center, and NIH3T3 normal mouse fibroblast cells were kindly provided by Dr. Michael Press from USC. HEY and NIH3T3 cells were maintained as monolayer cultures in RPMI, HCT 116 cells in McCoy1s5A media and MDA-MB 435 in DMEM. Media were purchased from (Mediatech, Virginia) and supplemented with 10% fetal bovine serum (Gemini-Bioproducts, Woodland, Calif.), 2 mM L-glutamine and 5% Penicillin/streptomycin from Bio whittaker were purchased from VWR. Cells were incubated at 37° C. in a humidified atmosphere of 5% CO2. To remove the adherent cells from the flask for passaging and counting, cells were washed with PBS without calcium or magnesium, incubated with a small volume of 0.25% trypsin-EDTA solution (Sigma-Aldrich, St. Louis, Mo.) for 5-10 min, and washed with culture medium and centrifuged. All experiments were performed using cells at exponential growth stage. Cells were routinely checked for mycoplasma contamination using a PCR-based assay (Stratagene, Tex., USA).
(§2) Stock solutions (10 mM) of all compounds were prepared in DMSO and stored at −20° C. Further dilutions were made fresh in PBS or cell-culture media right before cell treatment.
(§3) Cytotoxicity was assessed by a 3-(4,s-dimethylthiazol-2-yl)-2,5-diphenyltetrazolium bromide (MTT) assay as previously described.^24 Briefly, cells were seeded in 96-well microtiter plates and allowed to attach overnight. Cells were subsequently treated with continuous exposure to the corresponding drug for 72 h. A MTT solution (at a final concentration of 0.5 mglml) was added to each well, and cells were incubated for 4 h at 37° C. After removal of the medium, DMSO was added and the absorbance was read at 570 nm. All assays were done in triplicate. The IC50 was then determined for each drug from a plot of log (drug concentration) versus percentage of cells killed.

[2] = tested on: NIH3T3; assay type: cell-based, mouse
Text: as §1, §2, §3

[3] = tested on: HEY; assay type: cell-based, human; conditions: 72 h
Text: as §1, §2, §3

[4] = tested on: HCT116 p53+/+; assay type: cell-based; conditions: MTT, 72 h
Text: as §1, §2, §3

[5] = tested on: HCT116 p53−/−; assay type: cell-based; conditions: MTT, 72 h
Text: as §1, §2, §3

SMILES	IC50 ([1]; 72 h)	IC50 ([1]; Homo sapiens, MDA-MB-435, 72 h) [µM]	IC50 ([2]; Mus musculus, NIH3T3, 72 h) [µM]	IC50 [3] [µM]	IC50 ([3]; Homo sapiens) [µM]	IC50 ([4]; Homo sapiens, HCT-116, 72 h) [µM]	IC50 [4] [µM]	IC50 ([5]; Homo sapiens, HCT-116, 72 h) [µM]	IC50 [5] [µM]	IC50 ([2]; 72 h) [µM]
O=C(O)c1cccc(-c2ccc(C=NNc3nc4nonc4nc3Nc3ccc(F)cc3)o2)c1 [Compound 15]	2.8 µM and 3 µM	< 3	10	–	–	–	–	–	–	–
Oc1ccc(Br)cc1/C=N/Nc1nc2nonc2nc1Nc1ccc(Cl)cc1 [Compound 6]	4 ± 1 µM	< 3	2 ± 0.5	1.6 ± 0.6	< 3	< 3	2.7 ± 0.6	< 3	1.6 ± 0.7	–
CCCCCCc1nc2ccccc2c(=O)n1NC(=O)c1c(O)c2ccccc2n(CC)c1=O [Compound 26]	–	> 20	20	–	20	> 20	–	> 10	–	–
c1coc(CNc2nc3nonc3nc2NCc2ccco2)c1 [Compound 21]	–	> 20	> 10	–	> 20	> 20	–	> 10	–	–
CCCCn1c(=O)c(C(=O)Nc2nnc(C)s2)c(O)c2ccccc21 [Compound 30]	–	7	5	14	10	6 ± 3	–	8	–	–
C1C2CC3CC1CC(C2)C3Nc1nc2nonc2nc1NC1C2CC3CC(C2)CC1C3 (stereo not shown) [Compound 24]	–	9	9	–	8 ± 1.7	6	8	9 ± 1	–	–
CCCn1c(=O)c(C(=O)Nc2nnc(CC(C)C)s2)c(O)c2ccccc21 [Compound 29]	–	> 20	> 10	–	> 20	> 20	–	> 10	–	–
Brc1ccc(/C=N/Nc2nc3nonc3nc2Nc2cccc(Br)c2)cc1 [Compound 5]	–	> 10	1	3	2	2	–	1.1	1.2	–
CCOc1ccc2nc(NC(=N)/N=C(\C)c3ccccc3C(=O)O)nc(C)c2c1 [Compound 34]	–	> 20	> 10	–	7	20	–	10	–	–
c1cc(N2CCOCC2)ccc1Nc1nc2nonc2nc1Nc1ccc(N2CCOCC2)cc1 [Compound 23]	–	> 10	> 10	–	> 10	> 10	–	> 10	–	–
O=C(O)c1cc(-c2ccc(C=NNc3nc4nonc4nc3Nc3cccc(Br)c3)o2)ccc1O [Compound 18]	–	> 10	11	–	> 10	> 10	–	> 10	–	–
COC(=O)c1ccc(/C=N/Nc2nc3nonc3nc2Nc2ccccc2F)cc1 [Compound 1]	–	5	> 10	–	10	> 10	–	10	–	–
O=C(O)c1ccccc1Nc1nc2nonc2nc1Nc1ccccc1C(=O)O [Compound 22]	–	> 10	> 10	–	> 10	> 10	–	> 10	–	–
COc1cc(/C=N/Nc2nc3nonc3nc2Nc2ccc(Cl)cc2)ccc1O [Compound 7]	–	> 10	> 10	–	2	> 10	–	5.5	–	–
CCCCn1c(=O)c(C(=O)Nc2nc(CC(=O)OCC)cs2)c(O)c2ccccc21 [Compound 32]	–	20	8	–	15	10 ± 1	–	> 10	–	–
C=CCn1c(=O)c(C(=O)Nc2nc(CC(=O)OCC)cs2)c(O)c2ccccc21 [Compound 31]	–	> 10	> 10	–	> 10	20	–	> 10	–	–
COC(=O)/C=C1/N=C(Nc2nc3cc(C)ccc3o2)NC1=O [Compound 35]	–	6	11	2	3.5	5	–	4.2	3.4	6

SMILES	IC50 ([1]; 72 h)	IC50 ([1]; Homo sapiens, MDA-MB-435, 72 h) [µM]	IC50 ([2]; Mus musculus, NIH3T3, 72 h) [µM]	IC50 [3] [µM]	IC50 ([3]; Homo sapiens) [µM]	IC50 ([4]; Homo sapiens, HCT-116, 72 h) [µM]	IC50 [4] [µM]	IC50 ([5]; Homo sapiens, HCT-116, 72 h) [µM]	IC50 [5] [µM]	IC50 ([2]; 72 h) [µM]
Cc1ccccc1Nc1nc2nonc2nc1N/N=C/c1cc(Br)ccc1O [Compound 8]	–	> 10	> 10	–	5	2	–	1.1 ± 0.4	–	–
O=C(O)c1cc(-c2ccc(/C=N/Nc3nc4nonc4nc3Nc3ccccc3F)o2)ccc1Cl [Compound 17]	> 20 µM	–	–	15	–	–	7 ± 1	–	> 10	> 10
COc1ccccc1Nc1nc2nonc2nc1N/N=C/c1ccccc1F [Compound 10]	–	> 10	> 10	–	> 10	> 10	–	> 10	–	–
CCOC(=O)c1ccc(Nc2nc3nonc3nc2N/N=C/c2cccc3ccccc23)cc1 [Compound 11]	–	> 10	2	–	4	> 10	–	2	–	–
O=C(O)c1cc(-c2ccc(C=NNc3nc4nonc4nc3Nc3ccc(F)cc3)o2)ccc1Cl [Compound 13]	–	> 10	10	–	> 10	> 10	–	7	–	–
COc1cc(/C=N/Nc2nc3nonc3nc2Nc2ccccc2F)ccc1O [Compound 3]	–	> 10	> 10	–	5	> 10	–	> 10	–	–
COc1ccc(/C=N/Nc2nc3nonc3nc2Nc2ccc(F)cc2)cc1Br [Compound 4]	–	10	6	–	10	4	–	3	2	–
CCCn1c(=O)c(C(=O)NNC(=O)COc2ccccc2)c(O)c2ccccc21 [Compound 25]	–	> 20	> 10	–	> 10	10	–	> 10	–	–
C/C(=N\C(=N)Nc1nc(C)c2cc(C)ccc2n1)c1ccccc1C(=O)O [Compound 33]	18 µM	17	14	3	5	18	–	5	–	–
O=C(Nn1c(Cc2ccccc2)nc2ccccc2c1=O)c1c(O)c2cccc3c2n(c1=O)CCC3 [Compound 28]	–	> 10	> 10	15	19	> 20	–	> 10	–	–
Cc1ccccc1Nc1nc2nonc2nc1N/N=C/c1cccc2ccccc12 [Compound 12]	–	> 10	10	–	> 10	> 10	–	10	–	–
Cc1cccc(Nc2nc3nonc3nc2NN=Cc2ccc(-c3cccc(C(=O)O)c3)o2)c1 [Compound 20]	–	> 10	10	–	8	> 10	–	> 10	–	–
Cc1cc(-c2ccc(/C=N/Nc3nc4nonc4nc3Nc3ccccc3F)o2)c(C)c([N+](=O)[O-])c1 [Compound 16]	–	4	2	–	0.8	1.5	–	0.8 ± 0.1	–	–
CCCc1nc2ccccc2c(=O)n1NC(=O)c1c(O)c2cccc3c2n(c1=O)CCC3 [Compound 27]	–	> 20	12	–	> 20	> 20	–	> 10	–	–
O=C(O)c1cc(-c2ccc(/C=N/Nc3nc4nonc4nc3Nc3ccccc3F)o2)ccc1Cl [Compound 14]	–	> 10	> 10	–	10	> 10	–	7	–	–
COc1ccc(/C=N/Nc2nc3nonc3nc2Nc2ccccc2OC)cc1Br [Compound 9]	–	> 20	> 10	–	> 10	> 20	–	> 10	–	–
